Source: ChEMBL document CHEMBL6182930, “Discovery of TBK1Molecular Glue Degraders as a Potential Strategy for the Treatment of Autosomal Dominant Polycystic Kidney Disease (ADPKD)” (J Med Chem, 2025)
Active and inactive are the calls of the source. The rule behind the calls is not given here.

Key:
[1] = target: Protein cereblon/Serine/threonine-protein kinase TBK1 (Homo sapiens) (UniProt Q9UHD2+Q96SW2); assay: PROTAC activity at CRBN/TBK1 in human A549 cells assessed as induction of TBK1 degradation at 1 to 10 uM incubated for 16 hrs by Western blot analysis; format: cell-based; conditions: dose 1-10 µM
[2] = target: T1, E3 ubiquitin-protein ligase RNF126/Serine/threonine-protein kinase TBK1 (Homo sapiens, UniProt Q9UHD2+Q9BV68); assay: Molecular glue activity at RNF126/TBK1 in human A549 cells assessed as induction of TBK1 degradation at 1 uM incubated for 16 hrs by Western blot analysis; format: cell-based
[3] = target: T1, E3 ubiquitin-protein ligase RNF126/Serine/threonine-protein kinase TBK1; assay: Molecular glue activity at RNF126/TBK1 in HEK293T cells assessed as induction of TBK1 degradation at 1 uM incubated for 16 hrs by Western blot analysis; format: cell-based
[4] = target: T2, Serine/threonine-protein kinase TBK1 (Homo sapiens, UniProt Q9UHD2); assay: Inhibition of TBK1-dependent SEAP reporter gene expression in LPS-stimulated human THP1-Blue ISG cells incubated for 24 hrs by QUANTI-Blue reagent based analysis; format: cell-based
T2 sequence (Q9UHD2 whole entry): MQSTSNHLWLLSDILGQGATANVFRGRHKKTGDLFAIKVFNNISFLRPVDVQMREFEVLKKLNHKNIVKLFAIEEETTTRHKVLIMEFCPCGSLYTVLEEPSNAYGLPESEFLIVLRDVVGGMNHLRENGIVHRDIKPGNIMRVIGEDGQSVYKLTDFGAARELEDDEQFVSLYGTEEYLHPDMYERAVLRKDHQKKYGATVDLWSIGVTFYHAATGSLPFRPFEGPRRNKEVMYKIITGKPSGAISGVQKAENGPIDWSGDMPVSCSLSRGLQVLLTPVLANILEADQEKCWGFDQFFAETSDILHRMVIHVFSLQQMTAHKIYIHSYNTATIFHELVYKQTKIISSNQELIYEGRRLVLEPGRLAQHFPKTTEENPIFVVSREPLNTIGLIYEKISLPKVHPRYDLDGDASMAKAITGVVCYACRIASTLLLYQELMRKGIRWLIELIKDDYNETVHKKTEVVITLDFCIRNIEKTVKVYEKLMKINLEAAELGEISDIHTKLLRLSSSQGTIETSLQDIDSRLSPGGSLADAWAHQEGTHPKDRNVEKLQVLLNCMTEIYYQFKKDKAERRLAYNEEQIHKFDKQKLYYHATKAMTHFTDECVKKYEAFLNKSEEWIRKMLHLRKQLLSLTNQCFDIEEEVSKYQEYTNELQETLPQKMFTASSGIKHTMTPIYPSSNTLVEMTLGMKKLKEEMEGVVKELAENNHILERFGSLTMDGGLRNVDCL

[5] = system: MDCK; assay: Inhibition of cystogenesis in forskolin-stimulated MDCK cells assessed as reduction in cyst growth at 100 nM administrated for 8 days starting from day 4 to day 12 by imaging analysis; format: functional, cell-based; conditions: Canis lupus familiaris, time 8.0 day

Chain of Protein cereblon/Serine/threonine-protein kinase TBK1 (Homo sapiens) (Q96SW2 whole entry, looked up, one chain of several): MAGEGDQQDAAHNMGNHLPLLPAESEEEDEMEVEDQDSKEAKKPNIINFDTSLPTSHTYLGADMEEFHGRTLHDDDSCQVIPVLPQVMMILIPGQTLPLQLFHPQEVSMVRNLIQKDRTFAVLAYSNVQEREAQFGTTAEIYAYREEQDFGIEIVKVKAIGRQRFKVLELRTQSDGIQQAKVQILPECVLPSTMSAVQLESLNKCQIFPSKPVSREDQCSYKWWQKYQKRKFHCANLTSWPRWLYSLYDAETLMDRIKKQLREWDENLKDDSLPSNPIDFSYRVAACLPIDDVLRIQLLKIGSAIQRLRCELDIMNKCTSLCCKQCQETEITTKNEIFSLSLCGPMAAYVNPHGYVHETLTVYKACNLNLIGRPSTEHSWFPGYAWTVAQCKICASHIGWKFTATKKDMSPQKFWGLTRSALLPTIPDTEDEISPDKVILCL
T1 sequence (Q9BV68 2-311 partner limits assumed, one chain of several): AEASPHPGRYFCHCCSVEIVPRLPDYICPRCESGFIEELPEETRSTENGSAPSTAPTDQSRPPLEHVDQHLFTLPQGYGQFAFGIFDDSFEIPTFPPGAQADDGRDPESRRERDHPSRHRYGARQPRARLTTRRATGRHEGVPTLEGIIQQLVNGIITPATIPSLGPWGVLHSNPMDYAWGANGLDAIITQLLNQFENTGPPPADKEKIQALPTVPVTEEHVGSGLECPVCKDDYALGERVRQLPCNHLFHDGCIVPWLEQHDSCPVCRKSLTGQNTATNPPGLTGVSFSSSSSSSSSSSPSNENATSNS

Which Activity [1] does the source give for `O=C1CCC(N2C(=O)c3ccc(OCCCCCC(=O)N4CCN(Cc5cccc(Nc6ncc7ccn(CCCNC(=O)C8CCC8)c7n6)c5)CC4)cc3C2=O)C(=O)N1` (stereo unspecified) here?
Its Activity is “Active; Compound Exhibited Only Weak Degradation Compared To Control 3I”.

How did the Activity [2] turn out when `COc1ccc(C(=O)CCC(=O)N2CCN(CC3CCN(Cc4cccc(Nc5ncc6ccn(CCCNC(=O)C7CCC7)c6n5)c4)CC3)CC2)cc1` was run?
Its Activity is “inactive”.

And the Activity [3]?
Its Activity is “inactive”.

Which IC50 [4] does the source give for `Cc1ncsc1-c1ccc(CNC(=O)[C@@H]2C[C@@H](O)CN2C(=O)[C@@H](NC(=O)COCCCOCCCCOCCCOc2ccc(Nc3ncc(Br)c(NCCCN(C)C(=O)C4CCC4)n3)cc2)C(C)(C)C)cc1` here?
Its IC50 is 76.4 nM.

With `Cc1ncsc1-c1ccc(CNC(=O)[C@@H]2C[C@@H](O)CN2C(=O)[C@H](NC(=O)CCCCCCCCCCC(=O)N2CCN(Cc3cccc(Nc4ncc5ccn(CCCNC(=O)C6CCC6)c5n4)c3)CC2)C(C)(C)C)cc1` as the molecule, how does the Activity [1] read?
Its Activity is “inactive”.

For `Cc1ncsc1-c1ccc(CNC(=O)[C@@H]2C[C@@H](O)CN2C(=O)[C@H](NC(=O)CCCCC(=O)N2CCN(Cc3cccc(Nc4ncc5ccn(CCCNC(=O)C6CCC6)c5n4)c3)CC2)C(C)(C)C)cc1`, which Activity [1] is on record?
The Activity was “inactive”.

For `COc1ccc(C(=O)/C=C/C(=O)N2CCN(Cc3ccc(Nc4ncc5ccn(CCCNC(=O)C6CCC6)c5n4)cc3)CC2)cc1`, which Activity [2] is on record?
Its Activity is “Active”.

What about the Activity [3] of the same molecule?
The Activity was “Active”.

For `COc1ccc(C(=O)/C(C#N)=C/C(=O)N2CCN(Cc3cccc(Nc4ncc5ccn(CCCNC(=O)C6CCC6)c5n4)c3)CC2)cc1`, which Activity [2] is on record?
Its Activity is “inactive”.

What about the Activity [3] of the same molecule?
The Activity was “inactive”.

For `Cc1ncsc1-c1ccc(CNC(=O)[C@@H]2C[C@@H](O)CN2C(=O)[C@H](NC(=O)CCCCCCCCC(=O)N2CCN(Cc3cccc(Nc4ncc5ccn(CCCNC(=O)C6CCC6)c5n4)c3)CC2)C(C)(C)C)cc1`, which Activity [1] is on record?
The Activity was “inactive”.

For `O=C1CCC(N2C(=O)c3cccc(NCCCCCCCCCC(=O)N4CCN(Cc5cccc(Nc6ncc7ccn(CCCNC(=O)C8CCC8)c7n6)c5)CC4)c3C2=O)C(=O)N1` (stereo unspecified), which Activity [1] is on record?
Its Activity is “inactive”.

How did the Activity [1] turn out when `O=C1CCC(N2C(=O)c3ccc(OCCCCCCCC(=O)N4CCN(Cc5cccc(Nc6ncc7ccn(CCCNC(=O)C8CCC8)c7n6)c5)CC4)cc3C2=O)C(=O)N1` (stereo unspecified) was run?
Its Activity is “inactive”.

With `O=C1CCC(N2C(=O)c3cccc(NCCOCCOCCC(=O)N4CCN(Cc5cccc(Nc6ncc7ccn(CCCNC(=O)C8CCC8)c7n6)c5)CC4)c3C2=O)C(=O)N1` (stereo unspecified) as the molecule, how does the Activity [1] read?
Its Activity is “inactive”.

`O=C1CCC(N2C(=O)c3cccc(NCCCCCC(=O)N4CCN(Cc5cccc(Nc6ncc7ccn(CCCNC(=O)C8CCC8)c7n6)c5)CC4)c3C2=O)C(=O)N1` (stereo unspecified) was tested. Which Activity [1] did it give?
The Activity was “inactive”.

Which results are given for `COc1ccc(C(=O)/C=C/C(=O)N2CCN(Cc3cccc(Nc4ncc5ccn(CCCNC(=O)C6CCC6)c5n4)c3)CC2)cc1`?
Activity [2]: Active; Activity [3]: Active

Which Activity [2] does the source give for `COc1ccc(C(=O)/C=C/C(=O)N2CCN(C)CC2)cc1` here?
The Activity was “inactive”.

And the Activity [3]?
The Activity was “inactive”.

Which Activity [1] does the source give for `Cc1ncsc1-c1ccc(CNC(=O)[C@@H]2C[C@@H](O)CN2C(=O)[C@H](NC(=O)CCCCCCC(=O)N2CCN(Cc3cccc(Nc4ncc5ccn(CCCNC(=O)C6CCC6)c5n4)c3)CC2)C(C)(C)C)cc1` here?
The Activity was “inactive”.

`O=C1CCC(N2C(=O)c3ccc(OCCCCCCCCCCCC(=O)N4CCN(Cc5cccc(Nc6ncc7ccn(CCCNC(=O)C8CCC8)c7n6)c5)CC4)cc3C2=O)C(=O)N1` (stereo unspecified) was tested. Which Activity [1] did it give?
The Activity was “inactive”.

`Cc1ncsc1-c1ccc(CNC(=O)[C@H]2C[C@H](O)CN2C(=O)[C@@H](NC(=O)COCC(=O)N2CCN(Cc3cccc(Nc4ncc5ccn(CCCNC(=O)C6CCC6)c5n4)c3)CC2)C(C)(C)C)cc1` was tested. Which Activity [1] did it give?
The Activity was “inactive”.

`CC(=O)N1CCN(Cc2cccc(Nc3ncc4ccn(CCCNC(=O)C5CCC5)c4n3)c2)CC1` was tested. Which IC50 [4] did it give?
Its IC50 is 228 nM.

And the inhibition [5]?
Its inhibition is “inactive”.

With `Cc1ncsc1-c1ccc(CNC(=O)[C@H]2C[C@H](O)CN2C(=O)[C@@H](NC(=O)COCCOCCOCC(=O)N2CCN(Cc3cccc(Nc4ncc5ccn(CCCNC(=O)C6CCC6)c5n4)c3)CC2)C(C)(C)C)cc1` as the molecule, how does the Activity [1] read?
The Activity was “inactive”.

With `O=C1CCC(N2C(=O)c3cccc(NCCCCCCCC(=O)N4CCN(Cc5cccc(Nc6ncc7ccn(CCCNC(=O)C8CCC8)c7n6)c5)CC4)c3C2=O)C(=O)N1` (stereo unspecified) as the molecule, how does the Activity [1] read?
The Activity was “inactive”.

`Cc1ncsc1-c1ccc(CNC(=O)[C@@H]2C[C@@H](O)CN2C(=O)[C@H](NC(=O)CCC(=O)N2CCN(Cc3cccc(Nc4ncc5ccn(CCCNC(=O)C6CCC6)c5n4)c3)CC2)C(C)(C)C)cc1` was tested. Which Activity [1] did it give?
The Activity was “Active; Compound Exhibited Only Weak Degradation Compared To Control 3I”.

For `O=C1CCC(N2C(=O)c3cccc(NCCCC(=O)N4CCN(Cc5cccc(Nc6ncc7ccn(CCCNC(=O)C8CCC8)c7n6)c5)CC4)c3C2=O)C(=O)N1` (stereo unspecified), which Activity [1] is on record?
Its Activity is “Active; Compound Exhibited Only Weak Degradation Compared To Control 3I”.

With `O=C1CCC(N2C(=O)c3ccc(OCCCCCCCCCC(=O)N4CCN(Cc5cccc(Nc6ncc7ccn(CCCNC(=O)C8CCC8)c7n6)c5)CC4)cc3C2=O)C(=O)N1` (stereo unspecified) as the molecule, how does the Activity [1] read?
Its Activity is “inactive”.

Which results are given for `COc1ccc(C(=O)/C=C(\C#N)C(=O)N2CCN(Cc3cccc(Nc4ncc5ccn(CCCNC(=O)C6CCC6)c5n4)c3)CC2)cc1`?
Activity [2]: inactive; Activity [3]: inactive
